From PubChem BioAssay AID1918937 (Molecular Pharmacology Branch, DTP, NCI, 2023)

System: 521955-158-R2-J5-PDC complex spheroid viability
Assay: Anticancer human tumor 521955-158-R2-J5-PDC patient-derived pancreatic carcinoma cell line growth inhibition
Conditions: for IC50: curve of first compound; for viability, T/C: stronger effect = lower value; active = viability on the fitted dose curve at most 10% of control; inactive = the rest
Method in brief: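 Complex spheroids of tumor cells with HUVEC and human MSCs, exposed to iadademstat combined with other agents. Each agent tested in half-log steps from near clinical Cmax (else 10 microM top), DMSO ≤0.25%.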

[1] = second compound 0.1 µM, first compound 0.000949 µM
[2] = second compound 0.1 µM, first compound 0.003 µM
[3] = second compound 0.1 µM, first compound 0.00949 µM
[4] = second compound 0.1 µM, first compound 0.03 µM
[5] = second compound 0.1 µM, first compound 0.0949 µM
[6] = second compound 0.1 µM, first compound 0.3 µM
[7] = second compound 0.316 µM, first compound 0.000949 µM
[8] = second compound 0.316 µM, first compound 0.003 µM
[9] = second compound 0.316 µM, first compound 0.00949 µM
[10] = second compound 0.316 µM, first compound 0.03 µM
[11] = second compound 0.316 µM, first compound 0.0949 µM
[12] = second compound 0.316 µM, first compound 0.3 µM
[13] = second compound 1 µM, first compound 0.000949 µM
[14] = second compound 1 µM, first compound 0.003 µM
[15] = second compound 1 µM, first compound 0.00949 µM
[16] = second compound 1 µM, first compound 0.03 µM
[17] = second compound 1 µM, first compound 0.0949 µM
[18] = second compound 1 µM, first compound 0.3 µM
[19] = second compound 3.16 µM, first compound 0.000949 µM
[20] = second compound 3.16 µM, first compound 0.003 µM
[21] = second compound 3.16 µM, first compound 0.00949 µM
[22] = second compound 3.16 µM, first compound 0.03 µM
[23] = second compound 3.16 µM, first compound 0.0949 µM
[24] = second compound 3.16 µM, first compound 0.3 µM
[25] = second compound 10 µM, first compound 0.000949 µM
[26] = second compound 10 µM, first compound 0.003 µM
[27] = second compound 10 µM, first compound 0.00949 µM
[28] = second compound 10 µM, first compound 0.03 µM
[29] = second compound 10 µM, first compound 0.0949 µM
[30] = second compound 10 µM, first compound 0.3 µM
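Also: spheroids exposed to agents for seven days.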
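For viability, T/C in this document: percent of DMSO vehicle control luminescence viability.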

CCc1c2c(nc3ccc(O)cc13)-c1cc3c(c(=O)n1C2)COC(=O)[C@]3(O)CC + NC1CCC(NC2CC2c2ccccc2)CC1
active: viability, T/C [1] 4.35% | viability, T/C [2] 3.31% | viability, T/C [3] 1.16% | viability, T/C [4] 0.45% | viability, T/C [5] 0.43% | viability, T/C [6] 0.63% | viability, T/C [7] 5.2% | viability, T/C [8] 4.07% | viability, T/C [9] 0.9% | viability, T/C [10] 0.54% | viability, T/C [11] 0.4% | viability, T/C [12] 0.58% | viability, T/C [13] 5.26% | viability, T/C [14] 3.09% | viability, T/C [15] 0.97% | viability, T/C [16] 0.59% | viability, T/C [17] 0.52% | viability, T/C [18] 0.46% | viability, T/C [19] 4.43% | viability, T/C [20] 3.74% | viability, T/C [21] 0.95% | viability, T/C [22] 0.3% | viability, T/C [23] 0.53% | viability, T/C [24] 1.4% | viability, T/C [25] 4.7% | viability, T/C [26] 4.29% | viability, T/C [27] 1.07% | viability, T/C [28] 0.67% | viability, T/C [29] 1.68% | viability, T/C [30] 0.55%
< 0.949 nM: IC50 (second compound 0.1 µM) | IC50 (second compound 0.316 µM) | IC50 (second compound 1 µM) | IC50 (second compound 3.16 µM) | IC50 (second compound 10 µM)

Nc1ccccc1NC(=O)c1ccc(CNC(=O)OCc2cccnc2)cc1 + NC1CCC(NC2CC2c2ccccc2)CC1
342 nM: IC50 (second compound 1 µM)
active: viability, T/C (second compound 0.1 µM, first compound 3 µM) 0.31% | viability, T/C (second compound 0.316 µM, first compound 3 µM) 0.34% | viability, T/C (second compound 1 µM, first compound 3 µM) 0.26% | viability, T/C (second compound 3.16 µM, first compound 3 µM) 0.24% | viability, T/C (second compound 10 µM, first compound 3 µM) 0.35%
334 nM: IC50 (second compound 10 µM)
389 nM: IC50 (second compound 0.316 µM)
321 nM: IC50 (second compound 0.1 µM)
inactive: viability, T/C [3] 104% | viability, T/C [4] 107% | viability, T/C [5] 86.8% | viability, T/C [6] 55.1% | viability, T/C (second compound 0.1 µM, first compound 0.949 µM) 9.73% | viability, T/C [9] 103% | viability, T/C [10] 99% | viability, T/C [11] 88.7% | viability, T/C [12] 62.8% | viability, T/C (second compound 0.316 µM, first compound 0.949 µM) 11.8% | viability, T/C [15] 98.7% | viability, T/C [16] 101% | viability, T/C [17] 84.4% | viability, T/C [18] 57% | viability, T/C (second compound 1 µM, first compound 0.949 µM) 12.4% | viability, T/C [21] 102% | viability, T/C [22] 101% | viability, T/C [23] 80.4% | viability, T/C [24] 52.7% | viability, T/C (second compound 3.16 µM, first compound 0.949 µM) 10.7% | viability, T/C [27] 96.8% | viability, T/C [28] 98% | viability, T/C [29] 78.2% | viability, T/C [30] 58.6% | viability, T/C (second compound 10 µM, first compound 0.949 µM) 10.2%
293 nM: IC50 (second compound 3.16 µM)

Nc1ccn(C2OC(CO)C(O)C2(F)F)c(=O)n1 (stereo not given) + NC1CCC(NC2CC2c2ccccc2)CC1
43.5 nM: IC50 (second compound 10 µM)
50.9 nM: IC50 (second compound 0.1 µM)
inactive: viability, T/C [1] 105% | viability, T/C [2] 104% | viability, T/C [3] 96.8% | viability, T/C [4] 68.4% | viability, T/C [5] 28.4% | viability, T/C [6] 16.3% | viability, T/C [7] 105% | viability, T/C [8] 98.8% | viability, T/C [9] 96.2% | viability, T/C [10] 79.7% | viability, T/C [11] 24.2% | viability, T/C [12] 11.2% | viability, T/C [13] 95.3% | viability, T/C [14] 97.2% | viability, T/C [15] 90.1% | viability, T/C [16] 74.8% | viability, T/C [17] 29.5% | viability, T/C [18] 12.6% | viability, T/C [19] 104% | viability, T/C [20] 96.6% | viability, T/C [21] 82.6% | viability, T/C [22] 69.5% | viability, T/C [23] 28.8% | viability, T/C [24] 12.8% | viability, T/C [25] 101% | viability, T/C [26] 98% | viability, T/C [27] 83.7% | viability, T/C [28] 63.2% | viability, T/C [29] 26%
56.2 nM: IC50 (second compound 1 µM)
50.1 nM: IC50 (second compound 3.16 µM)
active: viability, T/C [30] 10.4%
55.5 nM: IC50 (second compound 0.316 µM)

O=C(c1cc(Cc2n[nH]c(=O)c3ccccc23)ccc1F)N1CCN(C(=O)C2CC2)CC1 + NC1CCC(NC2CC2c2ccccc2)CC1
> 10000 nM: IC50 (second compound 0.1 µM) | IC50 (second compound 0.316 µM) | IC50 (second compound 1 µM) | IC50 (second compound 3.16 µM) | IC50 (second compound 10 µM)
inactive: viability, T/C (second compound 0.1 µM, first compound 0.0316 µM) 109% | viability, T/C (second compound 0.1 µM, first compound 0.1 µM) 107% | viability, T/C (second compound 0.1 µM, first compound 0.316 µM) 100% | viability, T/C (second compound 0.1 µM, first compound 1 µM) 98.6% | viability, T/C (second compound 0.1 µM, first compound 3.16 µM) 89.3% | viability, T/C (second compound 0.1 µM, first compound 10 µM) 56.6% | viability, T/C (second compound 0.316 µM, first compound 0.0316 µM) 106% | viability, T/C (second compound 0.316 µM, first compound 0.1 µM) 108% | viability, T/C (second compound 0.316 µM, first compound 0.316 µM) 103% | viability, T/C (second compound 0.316 µM, first compound 1 µM) 102% | viability, T/C (second compound 0.316 µM, first compound 3.16 µM) 89% | viability, T/C (second compound 0.316 µM, first compound 10 µM) 57.8% | viability, T/C (second compound 1 µM, first compound 0.0316 µM) 97.9% | viability, T/C (second compound 1 µM, first compound 0.1 µM) 99.6% | viability, T/C (second compound 1 µM, first compound 0.316 µM) 99.4% | viability, T/C (second compound 1 µM, first compound 1 µM) 94.8% | viability, T/C (second compound 1 µM, first compound 3.16 µM) 97.1% | viability, T/C (second compound 1 µM, first compound 10 µM) 54.9% | viability, T/C (second compound 3.16 µM, first compound 0.0316 µM) 98.4% | viability, T/C (second compound 3.16 µM, first compound 0.1 µM) 101% | viability, T/C (second compound 3.16 µM, first compound 0.316 µM) 99.6% | viability, T/C (second compound 3.16 µM, first compound 1 µM) 102% | viability, T/C (second compound 3.16 µM, first compound 3.16 µM) 86.8% | viability, T/C (second compound 3.16 µM, first compound 10 µM) 59.5% | viability, T/C (second compound 10 µM, first compound 0.0316 µM) 102% | viability, T/C (second compound 10 µM, first compound 0.1 µM) 105% | viability, T/C (second compound 10 µM, first compound 0.316 µM) 99% | viability, T/C (second compound 10 µM, first compound 1 µM) 95.3% | viability, T/C (second compound 10 µM, first compound 3.16 µM) 81.9% | viability, T/C (second compound 10 µM, first compound 10 µM) 55.9%
